The results in this text go back to patent publication US11292781B2, “Pyrimidine tricyclic enone derivatives for inhibition of ROR-gamma and other uses” (REATA PHARMACEUTICALS, INC., priority 2016, dated 2022).

The assay has as its system Nrf2 transcription factor (GST ARE luciferase reporter in AREc32 cells). Nature of the assay: AREc32 luciferase reporter assay. It is filed as cell-based, human. The settings on record: EC2×: concentration required to increase GST ARE luciferase reporter activity by 2-fold, 19 hours. An excerpt: A. AREc32 Luciferase Reporter Assay The AREc32 luciferase reporter assay allows for quantitative assessment of the endogenous activity of the Nrf2 transcription factor in cultured mammalian cells. AREc32 cells are derived from MCF-7 human breast carcinoma cells that were stably transfected with a reporter construct that contains the firefly luciferase gene located downstream of eight copies of the rat GSTA2 antioxidant response element (ARE) sequence (Wang et al., 2006; CXR Biosciences). Active NRF2 binds to the ARE sequences and increases expression of the firefly luciferase gene. […] Luciferase activity was determined using the ONE-Glo Luciferase assay (Promega). The luminescence signal was measured on a BMG Pherastar microplate reader. The mean luminescence value from test compound-treated wells was normalized to that from DMSO-treated wells and was represented as fold-induction. Data were analyzed using GraphPad Prism version 6.00 for Windows, GraphPad Software, La Jolla Calif. USA. A non-linear regression curve with log (agonist) vs. response using a variable slope was used to fit the data. […] EC2× values were interpolated from the curve.
In the case of `COc1nc(OC)c2c(n1)[C@]1(C)C=C(C#N)C(=O)[C@H](C)[C@H]1CC2` [T1], the “HRF2 ARE 2×” value worked out at 487 nM. Then `COc1cc(-c2nc(OC)c3c(n2)[C@]2(C)C=C(C#N)C(=O)[C@H](C)[C@H]2CC3)ccn1` [T2], with 247 nM. Take `COc1nc(-c2ccnc(C)c2)nc2c1CC[C@@H]1[C@@H](C)C(=O)C(C#N)=C[C@@]21C` [T3]: the “HRF2 ARE 2×” value is given as 232 nM.

Take `COc1nc(-c2ccncc2C)nc2c1CC[C@@H]1[C@@H](C)C(=O)C(C#N)=C[C@@]21C` [T4]: the “HRF2 ARE 2×” value was 449 nM. The figure for `COc1nc(-c2ccncc2)nc2c1CC[C@@H]1[C@@H](C)C(=O)C(C#N)=C[C@@]21C` [T5] is 365 nM. For the molecule `COc1nc(-c2ccnc(F)c2)nc2c1CC[C@@H]1[C@@H](C)C(=O)C(C#N)=C[C@@]21C` [T6], the “HRF2 ARE 2×” value is listed as 341 nM. For `COc1nc(-c2cccnc2)nc2c1CC[C@@H]1[C@@H](C)C(=O)C(C#N)=C[C@@]21C` [T7], the “HRF2 ARE 2×” value stood at 388 nM. Turning to `C[C@H]1C(O)=C(C#N)C[C@@]2(C)c3nc(-c4ccncc4)nc(-c4ccccc4)c3CC[C@H]12` [T13], the “HRF2 ARE 2×” value is over 2000 nM. On to `C[C@H]1C(=O)C(C#N)=C[C@@]2(C)c3nc(-c4ccncc4)nc(-c4ccccc4)c3CC[C@H]12` [T14], for which the “HRF2 ARE 2×” value is listed as 281 nM. The figure for `C[C@H]1C(=O)[C@@]2(C#N)O[C@H]2[C@@]2(C)c3nc(-c4ccncc4)nc(-c4ccccc4)c3CC[C@H]12` [T15] is 738 nM. In the case of `C[C@H]1C(=O)C(C(N)=O)=C[C@@]2(C)c3nc(-c4ccncc4)nc(-c4ccccc4)c3CC[C@H]12` [T16], the “HRF2 ARE 2×” value was found to be 1000 nM. Take `Cc1ccc(S(=O)(=O)Oc2nc(-c3ccncc3)nc3c2CC[C@@H]2[C@@H](C)C(=O)C(C#N)=C[C@@]32C)cc1` [T18]: the “HRF2 ARE 2×” value was found to be 381 nM. Consider `C[C@H]1C(=O)C(C#N)=C[C@@]2(C)c3nc(-c4ccccc4)nc(-c4ccccc4)c3CC[C@H]12` [T19], for which the “HRF2 ARE 2×” value was 741 nM. `C[C@H]1C(=O)C(C#N)=C[C@@]2(C)c3nc(-c4ccc(C(F)(F)F)cc4)nc(-c4ccccc4)c3CC[C@H]12` [T20]: the “HRF2 ARE 2×” value was found to be 608 nM.

For the molecule `C[C@H]1C(=O)C(C#N)=C[C@@]2(C)c3nc(-c4ccncc4)nc(-c4ccc(CO)cc4)c3CC[C@H]12` [T21], the “HRF2 ARE 2×” value is 443 nM. With `C[C@H]1C(=O)C(C#N)=C[C@@]2(C)c3ncnc(-c4ccccc4)c3CC[C@H]12` [T22], the “HRF2 ARE 2×” value was 90 nM.

`C[C@H]1C(=O)C(C#N)=C[C@@]2(C)c3nc(-c4ccncc4)nc(-c4ccc(C(F)(F)F)cc4)c3CC[C@H]12` [T24]: the “HRF2 ARE 2×” value amounted to 171 nM. Turning to `C[C@H]1C(=O)C(C#N)=C[C@@]2(C)c3nc(-c4ccncc4)nc(-c4cccnc4)c3CC[C@H]12` [T25], the “HRF2 ARE 2×” value was 449 nM. On to `C[C@H]1C(=O)C(C#N)=C[C@@]2(C)c3nc(-c4ccncc4)nc(-c4cccc(C(F)(F)F)c4)c3CC[C@H]12` [T26], for which the “HRF2 ARE 2×” value is reported as 267 nM. Take `Cc1ccc(-c2nc(-c3ccncc3)nc3c2CC[C@@H]2[C@@H](C)C(=O)C(C#N)=C[C@@]32C)cc1` [T27]: the “HRF2 ARE 2×” value turned out to be 181 nM.

Take `C[C@H]1C(=O)C(C#N)=C[C@@]2(C)c3nc(-c4ccncc4)nc(-c4ccc(Cl)cc4)c3CC[C@H]12` [T28]: the “HRF2 ARE 2×” value was found to be 141 nM. In the case of `C[C@H]1C(=O)C(C#N)=C[C@@]2(C)c3nc(-c4ccncc4)nc(-c4ccncc4)c3CC[C@H]12` [T29], the “HRF2 ARE 2×” value was 484 nM. Consider `COc1ccc(-c2nc(-c3ccncc3)nc3c2CC[C@@H]2[C@@H](C)C(=O)C(C#N)=C[C@@]32C)cc1` [T30], for which the “HRF2 ARE 2×” value was found to be 136 nM. As for `C[C@H]1C(=O)C(C#N)=C[C@@]2(C)c3nc(-c4ccncc4)nc(-c4ccc(Cl)c(Cl)c4)c3CC[C@H]12` [T31], the “HRF2 ARE 2×” value was 186 nM. `C[C@H]1C(=O)C(C#N)=C[C@@]2(C)c3nc(N)nc(-c4ccccc4)c3CC[C@H]12` [T34]: the “HRF2 ARE 2×” value turned out to be 469 nM. Take `C[C@H]1C(=O)C(C#N)=C[C@@]2(C)c3nc(NC(=O)C4CCCCC4)nc(-c4ccccc4)c3CC[C@H]12` [T35]: the “HRF2 ARE 2×” value worked out at 575 nM. The figure for `C[C@H]1C(=O)C(C#N)=C[C@@]2(C)c3nc(-c4ccncc4)nc(Cc4ccccc4)c3CC[C@H]12` [T36] is 484 nM; for `C[C@H]1C(=O)C(C#N)=C[C@@]2(C)c3nc(-c4ccnc5ccccc45)nc(-c4ccccc4F)c3CC[C@H]12` [T37] it is 351 nM; for `Cc1cc(-c2nc(-c3ccc(F)cc3)c3c(n2)[C@]2(C)C=C(C#N)C(=O)[C@H](C)[C@H]2CC3)ccn1` [T50] it is 256 nM. As for `Cc1cc(-c2nc(-c3ccccc3F)c3c(n2)[C@]2(C)C=C(C#N)C(=O)[C@H](C)[C@H]2CC3)ccn1` [T51], the “HRF2 ARE 2×” value is reported as 364 nM. `Cc1cnccc1-c1nc(-c2ccccc2F)c2c(n1)[C@]1(C)C=C(C#N)C(=O)[C@H](C)[C@H]1CC2` [T56]: the “HRF2 ARE 2×” value was determined as 193 nM.

Take `C[C@H]1C(=O)C(C#N)=C[C@@]2(C)c3nc(-c4ccc5ncccc5c4)nc(-c4ccccc4F)c3CC[C@H]12` [T60]: the “HRF2 ARE 2×” value is reported as 380 nM. Turning to `C[C@H]1C(=O)C(C#N)=C[C@@]2(C)c3nc(-c4cn(C)c5ncccc45)nc(-c4ccccc4F)c3CC[C@H]12` [T72], the “HRF2 ARE 2×” value came out at 374 nM. On to `C[C@H]1C(=O)C(C#N)=C[C@@]2(C)c3nc(-c4ccccc4F)nc(-c4ccccc4F)c3CC[C@H]12` [T81], for which the “HRF2 ARE 2×” value turned out to be 705 nM. In the case of `C[C@H]1C(=O)C(C#N)=C[C@@]2(C)c3nc(-c4ccnc(CO)c4)nc(-c4ccccc4F)c3CC[C@H]12` [T82], the “HRF2 ARE 2×” value turned out to be 480 nM. `C[C@H]1C(=O)C(C#N)=C[C@@]2(C)c3nc(-c4ccnc(CF)c4)nc(-c4ccccc4F)c3CC[C@H]12` [T83]: the “HRF2 ARE 2×” value stood at 484 nM. Then `Cc1ccc(-c2nc(-c3ccccc3F)c3c(n2)[C@]2(C)C=C(C#N)C(=O)[C@H](C)[C@H]2CC3)cn1` [T88], with 177 nM. As to `C[C@H]1C(=O)C(C#N)=C[C@@]2(C)c3nc(N4CCN(C)CC4)nc(-c4ccccc4F)c3CC[C@H]12` [T91], the “HRF2 ARE 2×” value is 552 nM. For the molecule `C[C@H]1C(=O)C(C#N)=C[C@@]2(C)c3nc(N4CCOCC4)nc(-c4ccccc4F)c3CC[C@H]12` [T92], the “HRF2 ARE 2×” value is 491 nM.

As to `CC1(C)C(=O)C(C#N)=C[C@@]2(C)c3nc(-c4ccnc5ccccc45)nc(-c4ccccc4F)c3CC[C@H]12` [T118], the “HRF2 ARE 2×” value is 395 nM. As for `CC1=C2CCc3c(-c4ccccc4F)nc(-c4ccnc5c(F)cccc45)nc3[C@]2(C)C=C(C#N)C1=O` [T128], the “HRF2 ARE 2×” value is reported as 1385 nM.

On to `C[C@H]1C(=O)[C@@]2(C#N)O[C@H]2[C@@]2(C)c3nc(-c4ccnc5cc(F)ccc45)nc(-c4ccccc4F)c3CC[C@H]12` [T129], for which the “HRF2 ARE 2×” value turned out to be 697 nM. For `C[C@H]1C(=O)[C@@]2(C#N)O[C@H]2[C@@]2(C)c3nc(-c4ccnc(C5CC5)c4)nc(-c4ccccc4F)c3CC[C@H]12` [T130], the “HRF2 ARE 2×” value amounted to 692 nM. `CC1(C)C(=O)[C@@]2(C#N)O[C@H]2[C@@]2(C)c3nc(-c4ccnc5ccccc45)nc(-c4ccccc4F)c3CC[C@H]12` [T133]: the “HRF2 ARE 2×” value stood at 1199 nM. As to `COc1nc(-c2ccncc2)nc2c1CC[C@@H]1[C@@H](C)C(=O)C=C[C@@]21C` [T134], the “HRF2 ARE 2×” value came out at 3137 nM.
